The source of these data is PubChem BioAssay (NCI).

“And” between values parts separate entries of the source, which are not always exact repeats. Identical values can stand only once.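 Tested at 5 concentrations; 48 h exposure; 96-well plates; endpoints linearly interpolated, else capped at highest concentration. Here, GI50 denotes the concentration required for 50% inhibition of growth. TGI denotes the concentration required for complete inhibition of growth.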

Among the test systems are HOP-62 NSCLC; RXF 393 renal; SK-MEL-5 melanoma; HCT-116 colon; K-562 leukemia; SK-MEL-2 melanoma; NCI-H226 lung; HCT-15 colon; COLO 205 colon; SF-539 CNS.
Common to all, as to experiment: NCI-60 cell line screen, 48 h

Consider `O=C1c2ccccc2S(=O)(=O)N1CSC(=S)N1CCCCC1`, for which the GI50 in the assay with HOP-62 NSCLC is greater than 100 µM; in the assay on RXF 393 renal it was greater than 100 µM; in the assay with SK-MEL-5 melanoma, 33.2 µM; in the assay with HCT-116 colon it was greater than 100 µM; in the assay on K-562 leukemia, greater than 94.6 µM; with SK-MEL-2 melanoma, greater than 100 µM. Besides, the GI50 in the assay with NCI-H226 lung, in the assay on HCT-15 colon, with COLO 205 colon and in the assay on SF-539 CNS was greater than 100 µM each time. The TGI in the assay on HOP-62 NSCLC, in the assay with RXF 393 renal, in the assay on SK-MEL-5 melanoma, with HCT-116 colon, in the assay with K-562 leukemia and in the assay on SK-MEL-2 melanoma was greater than 100 µM in each case. Besides, the TGI in the assay on NCI-H226 lung, in the assay on HCT-15 colon, in the assay with COLO 205 colon and in the assay with SF-539 CNS was greater than 100 µM throughout.
With `NS(=O)(=O)c1ccc(NC2=CC(=O)C(=O)c3ccccc32)cc1`, the TGI with HOP-62 NSCLC, in the assay with RXF 393 renal, in the assay with SK-MEL-5 melanoma, in the assay with HCT-116 colon, in the assay on K-562 leukemia and in the assay with SK-MEL-2 melanoma was greater than 100 µM throughout. Besides, the TGI in the assay with NCI-H226 lung, in the assay with HCT-15 colon, in the assay with COLO 205 colon and in the assay on SF-539 CNS was greater than 100 µM throughout.
Regarding `NC1CCC(Nc2nc(NCc3ccc(-c4cccs4)nc3)c3ncn(C4CCCC4)c3n2)CC1` (stereo not given), the GI50 in the assay on HOP-62 NSCLC was 0.0276 µM; with RXF 393 renal, 0.0148 µM; with SK-MEL-5 melanoma, 0.28 µM; in the assay with HCT-116 colon it was 0.0332 µM; in the assay on K-562 leukemia it was 0.0397 µM; with SK-MEL-2 melanoma, 0.0908 µM. Besides, the GI50 in the assay with NCI-H226 lung is 0.131 µM; with HCT-15 colon, 0.342 µM; in the assay on COLO 205 colon it was 0.0169 µM; in the assay with SF-539 CNS, 0.157 µM. The TGI in the assay on HOP-62 NSCLC was found to be 0.0987 µM; in the assay with RXF 393 renal it was 0.0378 µM; with SK-MEL-5 melanoma, 1.28 µM; in the assay with HCT-116 colon it was 1.15 µM; with K-562 leukemia, 0.777 µM; in the assay with SK-MEL-2 melanoma, 0.288 µM. Besides, the TGI in the assay on NCI-H226 lung amounted to 1.31 µM; with HCT-15 colon, 5.36 µM; in the assay with COLO 205 colon it was 0.035 µM; in the assay with SF-539 CNS it was 0.395 µM.
Regarding `COC1CCN(C(=O)c2cc(Cc3n[nH]c(=O)c4ccccc34)ccc2F)CC1`, the GI50 in the assay with HOP-62 NSCLC was 33.4 µM; in the assay on RXF 393 renal it was 0.926 µM; with SK-MEL-5 melanoma, 32 µM; with HCT-116 colon, greater than 100 µM; with K-562 leukemia, greater than 89.1 µM; in the assay with SK-MEL-2 melanoma, greater than 47.1 µM. Besides, the GI50 with NCI-H226 lung is 89.2 µM; with HCT-15 colon it was greater than 100 µM; with COLO 205 colon, greater than 100 µM; in the assay on SF-539 CNS it was greater than 100 µM. The TGI with HOP-62 NSCLC was greater than 100 µM; in the assay on RXF 393 renal, 45.2 µM; with SK-MEL-5 melanoma it was greater than 100 µM; with HCT-116 colon, greater than 100 µM; in the assay with K-562 leukemia, greater than 100 µM; in the assay with SK-MEL-2 melanoma it was greater than 100 µM. In addition, the TGI with NCI-H226 lung, in the assay on HCT-15 colon, in the assay with COLO 205 colon and with SF-539 CNS was greater than 100 µM each time.
For the molecule `CN(Cc1cc(Br)cc(Br)c1O)Cc1cc(Br)cc(Br)c1O`, the GI50 with HOP-62 NSCLC was 1.74 µM; with RXF 393 renal, 2.65 µM; with SK-MEL-5 melanoma, 1.34 µM; in the assay on HCT-116 colon, 0.812 µM; with K-562 leukemia, 0.603 µM; in the assay with SK-MEL-2 melanoma it was 2.87 µM. Also, the GI50 with NCI-H226 lung is 4.75 µM; with HCT-15 colon, 0.558 µM; in the assay on COLO 205 colon, 3.72 µM; with SF-539 CNS it was 2.61 µM. Moreover, the TGI was determined as 18.1 µM with HOP-62 NSCLC; 15.3 µM in the assay with RXF 393 renal; 3.71 µM in the assay on SK-MEL-5 melanoma; 12.3 µM with HCT-116 colon; 20 µM in the assay with K-562 leukemia; 11.8 µM in the assay with SK-MEL-2 melanoma. Also, the TGI is 19.8 µM in the assay on NCI-H226 lung, 16.9 µM with HCT-15 colon, 15.2 µM in the assay on COLO 205 colon and 20.2 µM in the assay with SF-539 CNS.
`O=C1C(=O)c2c(nc3ccc(Br)cn23)-c2ccccc21`: the GI50 in the assay with HOP-62 NSCLC is 1.59 µM; in the assay on RXF 393 renal it was 1.55 µM; in the assay with SK-MEL-5 melanoma, 0.317 µM; in the assay on HCT-116 colon, 0.314 µM; in the assay with K-562 leukemia, 0.244 µM; in the assay on SK-MEL-2 melanoma, 0.596 µM. The GI50 is 1.61 µM with NCI-H226 lung, 0.759 µM in the assay on HCT-15 colon, 1.78 µM with COLO 205 colon and 0.472 µM with SF-539 CNS. Besides, the TGI amounted to 3.04 µM in the assay with HOP-62 NSCLC; 2.97 µM with RXF 393 renal; 0.788 µM in the assay on SK-MEL-5 melanoma; 1.2 µM in the assay with HCT-116 colon; 1.04 µM with K-562 leukemia; 1.99 µM in the assay on SK-MEL-2 melanoma. Further, the TGI came to 3.41 µM in the assay with NCI-H226 lung, 2.66 µM in the assay on HCT-15 colon, 3.55 µM in the assay with COLO 205 colon and 1.01 µM with SF-539 CNS.
For `CCCCCCCCCCCCCC1=NCCN1CCO`, the GI50 in the assay with HOP-62 NSCLC is 5.62 µM; with RXF 393 renal, 2.72 µM; in the assay with SK-MEL-5 melanoma it was 3.26 µM; in the assay on HCT-116 colon it was 2.3 µM; with K-562 leukemia, 3.04 µM; with SK-MEL-2 melanoma it was 2.86 µM. Also, the GI50 in the assay with NCI-H226 lung is 17.5 µM; in the assay on HCT-15 colon, 1.92 µM; in the assay on COLO 205 colon it was 2.11 µM; in the assay on SF-539 CNS, 1.95 µM. The TGI in the assay on HOP-62 NSCLC was 12.7 µM; with RXF 393 renal it was 7.43 µM; in the assay on SK-MEL-5 melanoma it was 11.2 µM; in the assay with HCT-116 colon, 5.27 µM; in the assay on K-562 leukemia it was greater than 100 µM; in the assay on SK-MEL-2 melanoma, 9.01 µM. Moreover, the TGI in the assay on NCI-H226 lung worked out at 41.2 µM; in the assay with HCT-15 colon it was 4.77 µM; in the assay on COLO 205 colon, 3.97 µM; in the assay with SF-539 CNS, 3.94 µM.
Consider `CN(C)CCNC(=O)C(C)(C)Oc1ccc(C(=O)c2ccc(Cl)cc2)cc1Cl`, for which the TGI in the assay with HOP-62 NSCLC was 23.9 µM; with RXF 393 renal it was 21.7 µM; in the assay with SK-MEL-5 melanoma it was 6.11 µM and 2.97 µM; with HCT-116 colon, 20 µM; in the assay with K-562 leukemia, 9.19 µM and > 39 µM; with SK-MEL-2 melanoma it was 32.6 µM. In addition, the TGI with NCI-H226 lung is 29 µM; with HCT-15 colon, 7.12 µM and 11.2 µM; with COLO 205 colon, 3.7 µM; in the assay on SF-539 CNS, 22.2 µM. Moreover, the GI50 in the assay with RXF 393 renal was 9.94 µM; in the assay with SK-MEL-5 melanoma it was 1.53 µM; in the assay on K-562 leukemia, 2.42 µM; with HCT-15 colon it was 2.71 µM; in the assay on COLO 205 colon, 4.41 µM.
Consider `Cc1cc2c(cc1C)[n+](=O)c(C(=O)C/C(=N/OCCCc1ccccc1)C(=O)Nc1cc(Cl)ccc1Cl)c(C)n2[O-]`, for which the TGI in the assay on HOP-62 NSCLC was greater than 100 µM; in the assay with RXF 393 renal, greater than 100 µM; with SK-MEL-5 melanoma, greater than 100 µM; with HCT-116 colon, greater than 100 µM; in the assay with K-562 leukemia it was greater than 100 µM; with SK-MEL-2 melanoma, 86.2 µM. Also, the TGI in the assay on NCI-H226 lung, with HCT-15 colon, with COLO 205 colon and in the assay on SF-539 CNS was greater than 100 µM in each case.
For the molecule `c1cc2[nH]ncc2cc1-c1nc2ccc3[nH]ncc3c2c2c1CCCC2`, the GI50 is 1.39 µM in the assay on HOP-62 NSCLC; 0.822 µM in the assay on RXF 393 renal; 1.67 µM in the assay on SK-MEL-5 melanoma; 0.455 µM in the assay on HCT-116 colon; 0.468 µM in the assay on K-562 leukemia; 0.509 µM in the assay on SK-MEL-2 melanoma. Also, the GI50 in the assay with NCI-H226 lung was 1.73 µM; with HCT-15 colon, 0.54 µM; with COLO 205 colon, 1.36 µM; with SF-539 CNS, 1.53 µM. Moreover, the TGI was 9.11 µM in the assay on HOP-62 NSCLC; 2.86 µM in the assay on RXF 393 renal; 3.92 µM with SK-MEL-5 melanoma; 10.6 µM with HCT-116 colon; greater than 44 µM in the assay on K-562 leukemia; 2.15 µM in the assay on SK-MEL-2 melanoma. In addition, the TGI with NCI-H226 lung was determined as 7.79 µM; in the assay on HCT-15 colon it was 11.2 µM; in the assay on COLO 205 colon, 8.36 µM; in the assay on SF-539 CNS it was 5.4 µM.
As to `C[C@H](Nc1ncnc2nc[nH]c12)c1cc2ccc(F)cc2nc1-c1ccccn1`, the GI50 in the assay with HOP-62 NSCLC is greater than 57.8 µM; with RXF 393 renal, 4.26 µM; in the assay on SK-MEL-5 melanoma, 91.2 µM; in the assay on HCT-116 colon, greater than 100 µM; in the assay on K-562 leukemia, greater than 100 µM; in the assay with SK-MEL-2 melanoma, greater than 100 µM. Besides, the GI50 is greater than 89.4 µM in the assay with NCI-H226 lung, greater than 100 µM with HCT-15 colon, greater than 100 µM in the assay with COLO 205 colon and greater than 94.7 µM with SF-539 CNS. Moreover, the TGI is greater than 100 µM in the assay on HOP-62 NSCLC; 59.2 µM with RXF 393 renal; greater than 100 µM in the assay with SK-MEL-5 melanoma; greater than 100 µM with HCT-116 colon; greater than 100 µM in the assay on K-562 leukemia; greater than 100 µM with SK-MEL-2 melanoma. Besides, the TGI in the assay with NCI-H226 lung, in the assay on HCT-15 colon, with COLO 205 colon and in the assay with SF-539 CNS was greater than 100 µM each time.
With `CC(=O)NC1=C(NCCN(C)C)C(=O)c2ccccc2C1=O`, the TGI with HOP-62 NSCLC is greater than 50 µM; with RXF 393 renal it was greater than 50 µM; with SK-MEL-5 melanoma it was 14.1 µM; in the assay on HCT-116 colon it was 18.6 µM; in the assay with K-562 leukemia it was greater than 50 µM; in the assay with SK-MEL-2 melanoma, greater than 50 µM. For the same molecule, the TGI in the assay on NCI-H226 lung was greater than 50 µM; with HCT-15 colon, 20.5 µM; in the assay with COLO 205 colon it was 17.7 µM; in the assay on SF-539 CNS, 34.4 µM.
